In paper PMC9603521, “WYBQ-4: a New Bactericidal Agent against Methicillin-Resistant Staphylococcus aureus” (Microbiology Spectrum, 2022):
Read-outs that look alike come from different tables or passages of the source.

Columns and labels:
Test in all cases: Cytotoxicity assay (cell viability)
Type in all cases: cell-based
[1] = tested on: A549 cells
Experimental: (§1) Cytotoxicity assay. The cytotoxicity of WYBQ-4 against A549, HEK-293T, or HepG2 cells was evaluated with a cell counting kit-8 kit (CCK8; US Everbright, Suzhou, China) according to the manufacturer’s instructions ([41]). In brief, 5 × 10^4 cells were seeded in 96-well plates containing prewarmed medium (100 μL) and incubated for 24 h at 37°C in 5% CO2. Then, various concentrations of WYBQ-4 (0 to 512 μg/mL) were added and further incubated for 24 h. Afterward, the cells were incubated with 100 μL of medium with 10 μL of CCK8 solution (Sigma-Aldrich) for 4 h. Finally, a solution of the purple precipitate dissolved in dimethyl sulfoxide (DMSO) was added to a 96-well plate, and the absorbance was measured at 450 nm.

[2] = tested on: HEK-293T cells
Experimental: as §1

[3] = tested on: HepG2 cells
Experimental: as §1

Measured: cell viability

C#CCO[C@@]1(NC(=O)CSc2cccc(C)c2)C(=O)N2C(C(=O)O)=C(CSc3nnnn3C)CSC21 (stereo partly drawn) [WYBQ-4]
still viable: [1] | [2] | [3]
did not affect the viability: [1]; A549, 0-128 μg/mL | [2]; HEK-293T, 0-128 μg/mL | [3]; HepG2, 0-128 μg/mL
